Entries after “also recorded” stand apart in the source; their conditions may differ. Values belong to the molecule of their own block, whether it stands above or below them.
Key:
[1] = biological target: T1, integrin GPIIb/IIIa (Homo sapiens, UniProt P05106+P08514); assay: Inhibition by elarofiban of platelet aggregation induced by collagen or CRP trimer SEQ ID 25; assay type: cell-based
T1 construct: Washed platelets were incubated with various elarofiban doses; host or cells: washed human platelets from PRP of healthy volunteers
T1 sequence (P08514 32-887 limits assumed): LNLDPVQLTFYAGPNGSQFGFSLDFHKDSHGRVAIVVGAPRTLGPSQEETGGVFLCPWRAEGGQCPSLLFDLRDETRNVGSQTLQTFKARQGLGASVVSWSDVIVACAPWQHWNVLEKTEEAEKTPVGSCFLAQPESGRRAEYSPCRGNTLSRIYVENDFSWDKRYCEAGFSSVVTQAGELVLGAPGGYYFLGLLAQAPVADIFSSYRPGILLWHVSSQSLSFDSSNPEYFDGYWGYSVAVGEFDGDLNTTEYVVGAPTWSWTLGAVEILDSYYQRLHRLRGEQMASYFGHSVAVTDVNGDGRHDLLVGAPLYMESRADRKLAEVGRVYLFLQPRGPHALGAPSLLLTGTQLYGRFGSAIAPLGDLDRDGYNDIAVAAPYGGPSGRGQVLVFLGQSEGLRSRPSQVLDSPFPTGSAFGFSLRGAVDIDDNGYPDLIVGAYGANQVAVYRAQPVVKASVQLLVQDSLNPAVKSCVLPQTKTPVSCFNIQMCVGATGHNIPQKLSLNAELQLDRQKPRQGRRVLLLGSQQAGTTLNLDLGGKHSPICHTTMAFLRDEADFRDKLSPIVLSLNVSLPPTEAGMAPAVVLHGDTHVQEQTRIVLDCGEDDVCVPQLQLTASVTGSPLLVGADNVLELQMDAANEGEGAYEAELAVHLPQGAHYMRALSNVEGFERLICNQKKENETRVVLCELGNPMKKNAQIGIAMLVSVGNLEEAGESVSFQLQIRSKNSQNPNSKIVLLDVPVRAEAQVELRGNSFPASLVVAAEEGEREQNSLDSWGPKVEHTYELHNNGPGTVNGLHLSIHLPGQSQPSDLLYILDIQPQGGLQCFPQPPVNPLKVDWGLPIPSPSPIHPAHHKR
T1 sequence (P08514 891-1039 partner limits assumed): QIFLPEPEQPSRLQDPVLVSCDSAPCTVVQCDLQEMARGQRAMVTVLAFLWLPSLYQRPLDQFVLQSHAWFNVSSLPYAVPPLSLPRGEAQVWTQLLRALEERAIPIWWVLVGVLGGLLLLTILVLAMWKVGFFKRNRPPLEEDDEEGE
T1 sequence (P05106 27-788): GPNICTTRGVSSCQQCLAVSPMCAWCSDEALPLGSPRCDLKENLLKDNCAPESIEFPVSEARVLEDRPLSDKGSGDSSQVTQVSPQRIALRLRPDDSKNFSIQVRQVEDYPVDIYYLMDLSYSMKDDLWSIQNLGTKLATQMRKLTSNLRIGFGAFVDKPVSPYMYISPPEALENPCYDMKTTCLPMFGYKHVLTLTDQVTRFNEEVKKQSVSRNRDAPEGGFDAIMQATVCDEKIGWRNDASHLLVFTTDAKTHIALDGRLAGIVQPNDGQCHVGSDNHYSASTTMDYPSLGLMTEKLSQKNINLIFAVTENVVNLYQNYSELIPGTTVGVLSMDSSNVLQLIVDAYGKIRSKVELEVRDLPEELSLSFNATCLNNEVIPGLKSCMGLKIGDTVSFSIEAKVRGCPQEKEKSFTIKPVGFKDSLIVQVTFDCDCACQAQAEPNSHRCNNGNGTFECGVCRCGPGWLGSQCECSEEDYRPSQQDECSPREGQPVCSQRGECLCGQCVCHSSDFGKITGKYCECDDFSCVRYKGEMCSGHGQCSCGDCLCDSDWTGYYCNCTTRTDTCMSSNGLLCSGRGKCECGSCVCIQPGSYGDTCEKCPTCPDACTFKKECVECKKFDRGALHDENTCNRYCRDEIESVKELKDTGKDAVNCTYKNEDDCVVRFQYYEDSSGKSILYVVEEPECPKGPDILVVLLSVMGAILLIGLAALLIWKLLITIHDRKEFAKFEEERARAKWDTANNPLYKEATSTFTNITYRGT

[2] = system: human platelets; assay: Human platelet aggregation assay (washed platelets, optical density 650 nm); assay type: cell-based; details: for EC50 ± SEM, platelet aggregation: Table 3
Method: Human platelet-rich plasma (PRP) concentrate from healthy volunteers was purchased from Biological Specialties, Inc. (Colmar, Pa.). […] The PRP was centrifuged at 730 g for 15 min. The resulting platelet pellet was washed twice in CGS buffer (13 mM sodium citrate, 30 mM glucose, 120 mM NaCl, pH 6.5) containing 1 U/mL apyrase (grade V, Sigma-Aldrich) and resuspended in Tyrode's buffer (140 mM NaCl, 2.7 mM KCl, 12 mM NaHCO3, 0.76 mM Na2HPO4, 5.5 mM dextrose, 5.0 mM Hepes, 0.2% BSA, pH 7.4). The “washed” platelets were diluted to 3×10^8 platelets/mL and kept >45 min at 37° C. before use.
For the assay, 105 μL of washed platelets, 2 mM CaCl2 and […] of fibrinogen were added to a 96-well microtiter plate. Platelet aggregation was initiated by the addition of serial concentrations of native collagen fibrils (equine type I; 92% identity with human collagen sequence; Chrono-log Corp., Havertown, Pa.) or test peptides. Buffer was added to one set of control wells. The assay plate was stirred constantly and intermittently placed in a microplate reader (Softmax, Molecular Devices, Menlo Park, Calif.) to read optical density (650 nm) at 0 and 5 min after the addition of the compound solutions. Aggregation was calculated as the decrease in optical density between the time-0 and 5-min measurements and expressed as percent of aggregation.
Peptides were dissolved in PBS (pH 7) or water (final pH 5) to a concentration of 2 mg/mL. Some samples were heated in a water bath (70° C.) for 10 min, filtered through a 0.45-μm filter and incubated for 24 h or 7 days at 4° C.

Inhibition of platelet aggregation induced by the CRP trimer having SEQ ID 25 ([1]; washed platelets incubated with 10, 100 and 1000 nM for 5 min before SEQ ID 25): dose-dependent inhibition
Inhibition of platelet aggregation induced by collagen ([1]; washed platelets incubated with 10, 100 and 1000 nM for 5 min before collagen): dose-dependent inhibition
Molecule: O=C(O)C[C@H](NC(=O)[C@@H]1CCCN(C(=O)CCC2CCNCC2)C1)c1cccnc1 [elarofiban]

Molecule: (Pro-Hyp-Gly)10 [SEQ ID 34]
Stimulation of platelet aggregation (in words) ([2]; Example 6, FIG. 1): not effective
EC50 ± SEM, platelet aggregation ([2]; peptide in PBS, H + F, pH 7, incubation 24 h): failed to aggregate platelets; also recorded: Not Active

EC50 values (±SEM), platelet aggregation ([2]; Example 6, FIG. 1, Table 4): 0.56 ± 0.09 µg/mL
EC50 ± SEM, platelet aggregation ([2]; native collagen fibrils (equine type I), no preparation conditions given): 0.25 µg/mL
Molecule: Collagen

From patent publication US8076294B2, “Collagen-related peptides and uses thereof” (Advanced Technologies and Regenerative Medicine, LLC., priority 2007, dated 2011)
